# Test results taken from US6737383B1, “Herbicidal oxadiazolidines” (priority 1999, dated 2004).
# What was measured:
# corn = assay: Test B pre/postemergence corn; format: in vivo, Zea mays
# Method in brief: (§1)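 Response is a visual 0-to-10 score relative to untreated plants, where 0 means no effect and 10 means complete control, taken twelve to sixteen days after application. Treatments went onto soil at planting and onto foliage of 1- to 4-leaf plants, using a surfactant-containing non-phytotoxic solvent.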
# purple nutsedge = assay: Test B pre/postemergence purple nutsedge; format: in vivo, Cyperus rotundus
# Method in brief: as §1
# smallflower flatsedge = assay: Test B flood test smallflower flatsedge; format: in vivo, Cyperus difformis
# Method in brief: (§2)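 Plants were grown to the 2-leaf stage before treatment with test chemical, then held in a greenhouse for twelve to sixteen days. Injury was visually rated against untreated controls on a 0–10 scale, where 0 is no effect and 10 is complete control.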
# morningglory = assay: Test B pre/postemergence morningglory; format: in vivo, Ipomoea hederacea
# Method in brief: as §1
# crabgrass = assay: Test B pre/postemergence crabgrass; format: in vivo, Digitaria sanguinalis
# Method in brief: as §1
# giant foxtail = assay: Test B pre/postemergence giant foxtail; format: in vivo, Setaria faberii
# Method in brief: as §1
# rape = assay: Test B pre/postemergence rape; format: in vivo, Brassica napus
# Method in brief: as §1
# wild oat = assay: Test B pre/postemergence wild oat; format: in vivo, Avena fatua
# Method in brief: as §1
# rice = assay: Test B flood test rice; format: in vivo, Oryza sativa
# Method in brief: as §2
# velvetleaf = assay: Test B pre/postemergence velvetleaf; format: in vivo, Abutilon theophrasti
# Method in brief: as §1
# sugar beet = assay: Test B pre/postemergence sugar beet; format: in vivo, Beta vulgaris
# Method in brief: as §1
# pigweed = assay: Test B pre/postemergence pigweed; format: in vivo, Amaranthus retroflexus
# Method in brief: as §1
# soybean = assay: Test B pre/postemergence soybean; format: in vivo, Glycine max
# Method in brief: as §1
# cocklebur = assay: Test B pre/postemergence cocklebur; format: in vivo, Xanthium strumarium
# Method in brief: as §1
# wheat = assay: Test B pre/postemergence wheat; format: in vivo, Triticum aestivum
# Method in brief: as §1
# duck salad = assay: Test B flood test duck salad; format: in vivo, Heteranthera limosa
# Method in brief: as §2
# [1] = Postemergence, Rate 250 g/ha, scale 0 to 10
# [2] = Postemergence, Rate 500 g/ha, scale of 0 to 10 where 0 is no effect and 10 is complete control
# [3] = Preemergence, Rate 62 g/ha, scale 0 to 10 (0 no effect, 10 complete control)
# [4] = Preemergence, Rate 125 g/ha, scale of 0 to 10 where 0 is no effect and 10 is complete control
# [5] = Preemergence, Rate 250 g/ha, scale 0 to 10, 0 is no effect, 10 is complete control
# [6] = Preemergence, Rate 500 g/ha, scale 0 to 10, 0 is no effect, 10 is complete control
# [7] = Rate 62 g/ha, Postemergence, scale of 0 to 10 where 0 is no effect and 10 is complete control
# [8] = Rate 125 g/ha, Postemergence, scale 0 to 10, 0 is no effect, 10 is complete control
# [9] = Postemergence block (flood test species), Rate 250 g/ha, scale 0 to 10
# [10] = Postemergence section (flood test species), Rate 500 g/ha, scale of 0 to 10 where 0 is no effect and 10 is complete control
# [11] = Rate 125 g/ha, Postemergence section (flood test species), scale 0 to 10, 0 is no effect, 10 is complete control
structure (smiles),measurement,setting,value
C=C[Si](C)(C)Cn1c(=O)on(C(=O)N(c2ccc(Cl)cc2)C(C)C)c1=O [Compound 425],Corn plant response rating,corn; [1],0
same,Corn plant response rating,corn; [2],2
same,"Plant response rating, Corn",corn; [3],0
same,"Plant response rating, Corn",corn; [4],0
same,Corn plant response rating,corn; [5],0
same,Corn plant response rating,corn; [6],9
same,Corn plant response rating,corn; [7],0
same,Corn plant response rating,corn; [8],0
same,Nutsedge plant response rating,purple nutsedge; [1],0
same,Nutsedge plant response rating,purple nutsedge; [2],0
same,"Plant response rating, Nutsedge",purple nutsedge; [3],0
same,"Plant response rating, Nutsedge",purple nutsedge; [4],0
same,Nutsedge plant response rating,purple nutsedge; [5],3
same,Nutsedge plant response rating,purple nutsedge; [6],5
same,Nutsedge plant response rating,purple nutsedge; [8],0
same,S. Flatsedge plant response rating,smallflower flatsedge; [9],2
same,S. Flatsedge plant response rating,smallflower flatsedge; [10],6
same,S. Flatsedge plant response rating,smallflower flatsedge; [11],0
same,Morningglory plant response rating,morningglory; [1],6
same,Morningglory plant response rating,morningglory; [2],10
same,"Plant response rating, Morningglory",morningglory; [3],0
same,"Plant response rating, Morningglory",morningglory; [4],0
same,Morningglory plant response rating,morningglory; [5],2
same,Morningglory plant response rating,morningglory; [6],4
same,Morningglory plant response rating,morningglory; [8],5
same,Crabgrass plant response rating,crabgrass; [1],8
same,Crabgrass plant response rating,crabgrass; [2],9
same,"Plant response rating, Crabgrass",crabgrass; [3],9
same,"Plant response rating, Crabgrass",crabgrass; [4],10
same,Crabgrass plant response rating,crabgrass; [5],10
same,Crabgrass plant response rating,crabgrass; [6],10
same,Crabgrass plant response rating,crabgrass; [7],4
same,Crabgrass plant response rating,crabgrass; [8],7
same,Giant foxtail plant response rating,giant foxtail; [1],8
same,Giant foxtail plant response rating,giant foxtail; [2],9
same,"Plant response rating, Giant foxtail",giant foxtail; [3],10
same,"Plant response rating, Giant foxtail",giant foxtail; [4],10
same,Giant foxtail plant response rating,giant foxtail; [5],10
same,Giant foxtail plant response rating,giant foxtail; [6],10
same,Giant foxtail plant response rating,giant foxtail; [7],6
same,Giant foxtail plant response rating,giant foxtail; [8],7
same,Rape plant response rating,rape; [1],2
same,Rape plant response rating,rape; [2],3
same,"Plant response rating, Rape",rape; [3],0
same,"Plant response rating, Rape",rape; [4],2
same,Rape plant response rating,rape; [5],2
same,Rape plant response rating,rape; [6],10
same,Rape plant response rating,rape; [8],0
same,Wild oats plant response rating,wild oat; [1],2
same,Wild oats plant response rating,wild oat; [2],3
same,"Plant response rating, Wild oats",wild oat; [3],2
same,"Plant response rating, Wild oats",wild oat; [4],4
same,Wild oats plant response rating,wild oat; [5],4
same,Wild oats plant response rating,wild oat; [6],10
same,Wild oats plant response rating,wild oat; [8],0
same,Rice plant response rating,rice; [9],0
same,Rice plant response rating,rice; [10],0
same,Rice plant response rating,rice; [11],0
same,Velvetleaf plant response rating,velvetleaf; [1],0
same,Velvetleaf plant response rating,velvetleaf; [2],2
same,"Plant response rating, Velvetleaf",velvetleaf; [3],0
same,"Plant response rating, Velvetleaf",velvetleaf; [4],0
same,Velvetleaf plant response rating,velvetleaf; [5],2
same,Velvetleaf plant response rating,velvetleaf; [6],6
same,Velvetleaf plant response rating,velvetleaf; [8],0
same,Sugarbeets plant response rating,sugar beet; [1],3
same,Sugarbeets plant response rating,sugar beet; [2],4
same,"Plant response rating, Sugarbeets",sugar beet; [3],0
same,"Plant response rating, Sugarbeets",sugar beet; [4],0
same,Sugarbeets plant response rating,sugar beet; [5],2
same,Sugarbeets plant response rating,sugar beet; [6],2
same,Sugarbeets plant response rating,sugar beet; [8],2
same,Redroot pigweed plant response rating,pigweed; [1],2
same,Redroot pigweed plant response rating,pigweed; [2],2
same,"Plant response rating, Redroot pigweed",pigweed; [3],0
same,"Plant response rating, Redroot pigweed",pigweed; [4],0
same,Redroot pigweed plant response rating,pigweed; [5],3
same,Redroot pigweed plant response rating,pigweed; [6],3
same,Redroot pigweed plant response rating,pigweed; [8],0
same,Soybean plant response rating,soybean; [1],2
same,Soybean plant response rating,soybean; [2],3
same,"Plant response rating, Soybean",soybean; [3],0
same,"Plant response rating, Soybean",soybean; [4],0
same,Soybean plant response rating,soybean; [5],0
same,Soybean plant response rating,soybean; [6],0
same,Soybean plant response rating,soybean; [8],1
same,Cocklebur plant response rating,cocklebur; [1],0
same,Cocklebur plant response rating,cocklebur; [2],0
same,"Plant response rating, Cocklebur",cocklebur; [3],0
same,"Plant response rating, Cocklebur",cocklebur; [4],0
same,Cocklebur plant response rating,cocklebur; [5],0
same,Cocklebur plant response rating,cocklebur; [6],2
same,Cocklebur plant response rating,cocklebur; [7],0
same,Cocklebur plant response rating,cocklebur; [8],0
same,Wheat plant response rating,wheat; [1],3
same,Wheat plant response rating,wheat; [2],6
same,"Plant response rating, Wheat",wheat; [3],2
same,"Plant response rating, Wheat",wheat; [4],2
same,Wheat plant response rating,wheat; [5],3
same,Wheat plant response rating,wheat; [6],4
same,Wheat plant response rating,wheat; [8],0
same,Ducksalad plant response rating,duck salad; [9],0
same,Ducksalad plant response rating,duck salad; [10],0
same,Ducksalad plant response rating,"duck salad; Rate 62 g/ha, Postemergence (flood test species), scale of 0 to 10 where 0 is no effect and 10 is complete control",0
same,Ducksalad plant response rating,duck salad; [11],0
